Data reported in ChEMBL document CHEMBL1201862, “PubChem BioAssay data set” (2004).
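Protocol summary: plate cells (96-well), add compound at 5 concentrations, incubate 48 h, interpolate endpoints linearly. The concentration for 50% growth inhibition is given as GI50.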 Active and inactive are the calls of the source. No stated cut-off is given here; in the data, active = GI50 up to about 1.1 µM and inactive = higher.

How the values were obtained:
Experiment in all cases: NCI-60 cell line screen, 48 h
TK-10 = system: TK-10
T47D = system: T47D
CCRF-CEM = system: CCRF-CEM
Hs-578T = system: Hs-578T
SNB-19 = system: SNB-19
NCI-H226 = system: NCI-H226
SNB-75 = system: SNB-75
SK-OV-3 = system: SK-OV-3
OVCAR-8 = system: OVCAR-8
MDA-N = system: MDA-N
SF-268 = system: SF-268
DU-145 = system: DU-145
M14 = system: M14
SN12C = system: SN12C
MDA-MB-435 = system: MDA-MB-435
A498 = system: A498
RPMI-8226 = system: RPMI-8226
HL-60 = system: HL-60
OVCAR-3 = system: OVCAR-3
KM12 = system: KM12
HT-29 = system: HT-29
SW-620 = system: SW-620
UACC-257 = system: UACC-257
786-0 = system: 786-0
IGROV-1 = system: IGROV-1
SF-539 = system: SF-539
Malme-3M = system: Malme-3M
LOX IMVI = system: LOX IMVI
U-251 = system: U-251
RXF 393 = system: RXF 393
HOP-92 = system: HOP-92
OVCAR-4 = system: OVCAR-4
NCI-H522 = system: NCI-H522
MOLT-4 = system: MOLT-4
UACC-62 = system: UACC-62
NCI-H23 = system: NCI-H23
ACHN = system: ACHN
SK-MEL-5 = system: SK-MEL-5
HCT-15 = system: HCT-15
A549 = system: A549
HCT-116 = system: HCT-116
EKVX = system: EKVX
COLO 205 = system: COLO 205
SF-295 = system: SF-295
NCI/ADR-RES = system: NCI/ADR-RES
OVCAR-5 = system: OVCAR-5
K562 = system: K562
SR = system: SR
UO-31 = system: UO-31
SK-MEL-2 = system: SK-MEL-2
MCF7 = system: MCF7
BT-549 = system: BT-549
CAKI-1 = system: CAKI-1
MDA-MB-231 = system: MDA-MB-231
PC-3 = system: PC-3
HOP-62 = system: HOP-62

Measured: GI50

CCc1nnc(S)n1/N=C\c1ccc(-c2ccccc2[N+](=O)[O-])o1
30.3 µM: HCT-15
inactive: TK-10 > 100 µM | T47D 43.9 µM | CCRF-CEM 42.1 µM | Hs-578T 37.4 µM | SNB-19 > 100 µM | NCI-H226 12.1 µM | SNB-75 32.1 µM | SK-OV-3 36.1 µM | OVCAR-8 33.1 µM | MDA-N 17.6 µM | SF-268 36.7 µM | DU-145 53.5 µM | M14 39.7 µM | SN12C 47.3 µM | MDA-MB-435 15.4 µM | A498 49.4 µM | RPMI-8226 13.2 µM | HL-60 35.6 µM | OVCAR-3 18.2 µM | KM12 31.8 µM | HT-29 35.7 µM | SW-620 41.7 µM | UACC-257 76.4 µM | 786-0 45.6 µM | IGROV-1 31.7 µM | SF-539 29.8 µM | Malme-3M 85.5 µM | LOX IMVI 28 µM | U-251 38.5 µM | RXF 393 63.5 µM | HOP-92 49.3 µM | OVCAR-4 44.8 µM | NCI-H522 31.6 µM | MOLT-4 19.4 µM | UACC-62 37.6 µM | NCI-H23 33.3 µM | ACHN 52.5 µM | SK-MEL-5 12 µM | A549 42.9 µM | HCT-116 32.3 µM | EKVX 21.1 µM | COLO 205 29.9 µM | SF-295 28.7 µM | NCI/ADR-RES 26.3 µM | OVCAR-5 50.7 µM | K562 27.9 µM | SR 16.9 µM | UO-31 41.5 µM | SK-MEL-2 29.4 µM | MCF7 19.9 µM | BT-549 28.8 µM | CAKI-1 51.4 µM | MDA-MB-231 47.2 µM | PC-3 41.5 µM | HOP-62 56.5 µM
